Results as given in patent publication US8299054B2, “Cyclic 11-beta hydroxysteroid dehydrogenase type 1 inhibitors” (Bristol-Myers Squibb Company, priority 2006, dated 2012).
Where two headings read alike, the source gives them in different places.

Key:
11beta-HSD1 = target: T1, 11beta-HSD1 (Mus musculus, UniProt P50172); assay: In vivo inhibition of 11beta-HSD1: DHC administration to DIO mice, plasma corticosterone AUC; conditions: 30 mpK, oral, DHC 10 mg/kg 60 minutes after compound
T1 construct: from tissue; host or cells: whole animal: diet induced obese (DIO) mice, Jackson Laboratory
T1 sequence (P50172 whole entry): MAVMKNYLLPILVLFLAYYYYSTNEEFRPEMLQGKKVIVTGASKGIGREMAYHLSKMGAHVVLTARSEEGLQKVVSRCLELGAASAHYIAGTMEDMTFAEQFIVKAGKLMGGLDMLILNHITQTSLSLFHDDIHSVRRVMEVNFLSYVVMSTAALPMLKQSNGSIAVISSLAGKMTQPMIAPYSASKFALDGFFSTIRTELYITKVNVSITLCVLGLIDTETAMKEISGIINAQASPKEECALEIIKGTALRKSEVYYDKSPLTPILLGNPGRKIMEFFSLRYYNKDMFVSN

[1] = target: recombinant human 11beta-HSD1 (Homo sapiens, UniProt P28845); assay: 11β-HSD-1 SPA Enzyme Assay (Scintillation Proximity assay, microsomes of transfected HEK 293 EBNA cells)
Chain of recombinant human 11beta-HSD1 (P28845 whole entry): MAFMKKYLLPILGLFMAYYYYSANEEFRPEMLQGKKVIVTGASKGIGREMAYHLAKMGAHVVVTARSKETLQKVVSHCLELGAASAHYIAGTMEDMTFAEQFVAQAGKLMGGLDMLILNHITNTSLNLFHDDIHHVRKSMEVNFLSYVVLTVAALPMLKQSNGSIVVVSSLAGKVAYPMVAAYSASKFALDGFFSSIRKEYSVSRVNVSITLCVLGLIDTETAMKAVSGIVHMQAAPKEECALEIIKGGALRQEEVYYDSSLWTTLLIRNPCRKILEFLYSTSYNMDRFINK
Experimental: The supernatant was further centrifuged at 105,000×g for 60 min. The 105,000×g pellet was resuspended in buffer H and centrifuged at 105,000×g for 60 min. […] Aliquots were stored at −80° C. until needed. The protein concentration was measured by the BioRad method using BSA standard.
Compounds were dissolved in DMSO to obtain 10 mM stock concentrations. From the 10 mM stock, the compounds were diluted in DMSO to achieve the concentrations.
11β-HSD-1 was assayed by Scintillation Proximity assay in a 384-well Perkin Elmer white plate. The dose response of the compounds was determined using 11 half-log dilutions of compound in DMSO in duplicate. To each well, 0.5 μl of compound dilution in DMSO were added. 15 μl of assay buffer (for blanks) or 15 μl of human microsomes in assay buffer were added next and the plates were incubated for 10 min at room temperature. […] Duplicates were in the same plate one row below the other. 10 μl of ^3H-cortisone (final concentration 40 nM) was added to each well and the plate was spun down to mix and bring down the contents to the bottom of the wells. The plates were incubated at room temperature with gentle shaking for 4 hrs. The reaction was stopped with addition of 10 μl of 10 mM carbenoxolone. Then, 0.5 mg of yttrium silicate SPA beads coupled to anti-cortisol antibody in 20 μl were added to all the wells of plate, which were spun down once more and incubated at room temperature overnight. The plate was read in a TopCount® (1 min/well). Data were uploaded automatically to Tool Set, a Lead Evaluation informatics program for data capture and calculation. Graphs were generated with the Curve Master program.

[2] = test system: hepatic glucose production; conditions: patients with type 2 diabetes, seven days, versus placebo; cited from earlier work
[3] = read-out: h HSD1 IC50, human microsomes, 40 nM 3H-cortisone, 4 hrs at room temperature

SMILES	IC50 [1]	further results
O=C(CC1(c2ccc(F)cc2)C2CC3CC(C2)CC1C3)N1CC[C@H](O)C1 (single isomer, unassigned) [Example 302]	2.4 nM	
O=C(O)COC1(c2ccc(F)cc2)C2CC3CC(C2)CC1C3 (centres unmarked) [Example 8]	633 nM	
CS(=O)(=O)NC(=O)CC1(c2ccc(F)cc2)C2CC3CC(C2)CC1C3 (centres unmarked) [Example 22]	159 nM	
O=C(CC1(c2ccc(F)cc2)C2CCCC1CC(O)C2)N1CC(O)C1 (centres unmarked) [Example 23, 2-(9-(4-Fluorophenyl)-3-hydroxybicyclo[3.3.1]nonan-9-yl)-1-(3-hydroxyazetidin-1-yl)ethanone]		IC50 [1, 3]: 8.3 nM
Cn1nnc(C2CN(C(=O)CC3(c4ccccc4)C4CC5CC3CC(C4)C5O)C2)n1 (centres unmarked) [Example 28]		IC50 [1, 3]: 10 nM
CNC(=O)OC1CN(C(=O)C[C@]2(c3ccc(F)cc3)C3CC4CC2C[C@](C(N)=O)(C4)C3)C1 [Example 32]	21 nM	
Cc1nnc(C2CN(C(=O)CC3(c4ccccc4)C4CC5CC3CC(C4)C5O)C2)o1 (centres unmarked) [Example 34]		IC50 [1, 3]: 196 nM
Cc1nnc(COC2CN(C(=O)CC3(c4ccccc4)C4CC5CC3CC(C4)C5O)C2)o1 (centres unmarked) [Example 36]		IC50 [1, 3]: 14 nM
O=C(N1CC(O)C1)C1(Cc2ccccc2Cl)C2CC3CC(C2)CC1C3 (centres unmarked) [Example 37]	15 nM	
O=C(O)CC1(Cc2ccccc2)C2CCCC1CCC2 (centres unmarked) [Example 49]	97 nM	
O=C(O)C1(Cc2coc(-c3ccc(F)cc3)n2)C2CC3CC(C2)CC1C3 (centres unmarked) [Example 55]	2980 nM	
COC(=O)C1CN1C(=O)CC1(c2ccc(F)cc2)C2CC3CC(C2)CC1C3 (centres unmarked) [Example 79]	81 nM	
C=CCO[C@]12CC3CC(C1)[C@](CC(=O)N1CC(O)C1)(c1ccc(F)cc1)C(C3)C2 [Example 98]	1.6 nM	
O=C(O)C1CN(C(=O)C2CN(C(=O)CC3(Cc4ccccc4)C4CC5CC(C4)CC3C5)C2)C1 (centres unmarked) [Example 106]	457 nM	
O=C(O)COC1CN(C(=O)CC2(c3ccc(F)cc3)C3CC4CC(C3)CC2C4)C1 (centres unmarked) [Example 117]	90 nM	
O=C(C[C@]1(Cc2ccccc2)C2CC3CC1C[C@@](O)(C3)C2)N1CC(O)C1 [Example 122]	253 nM	
O=C(O)C1(Cc2cccc(F)c2)C2CC3CC(C2)CC1C3 (centres unmarked) [Example 132]	15 nM	
C=C1CC2CCC(C1)C2(CC(=O)O)c1ccc(F)cc1 (centres unmarked) [Example 134]	30 nM	
O=C(O)C1(CCc2ccccc2)C2CC3CC(C2)CC1C3 (centres unmarked) [Example 136]	1150 nM	

SMILES	IC50 [1]	further results
Cc1noc(C)c1CC1(C(=O)O)C2CC3CC(C2)CC1C3 (centres unmarked) [Example 140]	651 nM	
O=C(C[C@]1(Cc2ccccc2Cl)C2CC3CC1C[C@](O)(C3)C2)N1CC(O)C1 [Example 167]	20 nM	
O=C(CC1(c2ccc(F)cc2)C2CC3CC(C2)CC1C3)N1CC(Oc2ccccc2)C1 (centres unmarked) [Example 174]	1 nM	
O=C(C[C@]1(c2ccc(F)cc2)C2CC3CC1C[C@@](C(=O)O)(C3)C2)N1CC(O)C1 [Example 181]	128 nM	
N#Cc1ccc(OC2CN(C(=O)CC3(c4ccc(F)cc4)C4CC5CC(C4)CC3C5)C2)nc1 (centres unmarked) [Example 182]	2.4 nM	
CC(C(=O)N1CC(O)C1)C1(c2ccc(F)cc2)C2CC3CC(C2)CC1C3 (centres unmarked) [Example 188]	121 nM	
O=C(O)C(C(=O)N1CC(O)C1)C1(c2ccc(F)cc2)C2CC3CC(C2)CC1C3 (centres unmarked) [Example 190]	9120 nM	
CS(=O)(=O)NC1CN(C(=O)CC2(Cc3ccccc3)C3CC4CC2CC(C3)C4O)C1 (centres unmarked) [Example 195]		IC50 [1, 3]: 105 nM
COC(=O)NC1CN(C(=O)C[C@]2(c3ccc(F)cc3)C3CC4CC2C[C@](C(N)=O)(C4)C3)C1 [Example 210]	316 nM	
CC1(CC(=O)N2CC(O)(c3ccc(F)cc3)C2)C2CC3CC1CC(C2)C3O (centres unmarked) [Example 213]		IC50 [1, 3]: 44 nM
CNC(=O)OCC1CN(C(=O)CC2(c3ccccc3)C3CC4CC2CC(C3)C4O)C1 (centres unmarked) [Example 216]		IC50 [1, 3]: 5.1 nM
O=C(CC1(c2ccc(F)cc2)C2CC3CC1CC(C2)C3O)N1CC(O)C1 (centres unmarked) [Example 217]		% inhibition (11beta-HSD1): 67%
CNC(=O)OC1CN(C(=O)CC2(c3ccc(F)cc3)C3CC4CC2CC(C3)O4)C1 (centres unmarked) [Example 236]	274 nM	
CNC(=O)OC1CN(C(=O)C2(Cc3ccc(Cl)cc3)C3CC4CC(C3)CC2C4)C1 (centres unmarked) [Example 240]	67 nM	
O=C(CC1(c2ccc(F)cc2)C2CC3CC(C2)CC1C3)N1CCC(OCc2ccccc2)C1 (centres unmarked) [Example 303]	4.7 nM	
CN(CCO)C(=O)CC1(c2ccc(F)cc2)C2CC3CC(C2)CC1C3 (centres unmarked) [Example 304]	25 nM	
O=C(NC1CCN(C(=O)CC2(c3ccc(F)cc3)C3CC4CC(C3)CC2C4)C1)OCc1ccccc1 (centres unmarked) [Example 305]	28 nM	
CCN(CC)C(=O)CC1(c2ccc(F)cc2)C2CC3CC1CC(F)(C3)C2 (centres unmarked) [Example 307]	383 nM	
CC1(C)[C@@H](OC(=O)CCC(=O)O)CC[C@]2(C)[C@H]3C(=O)C=C4[C@@H]5C[C@@](C)(C(=O)O)CC[C@]5(C)CC[C@@]4(C)[C@]3(C)CC[C@@H]12 [carbenoxolone]		hepatic glucose production [2]: decrease in hepatic glucose production

Further lines, with some results ahead:

IC50 [1]	SMILES	further results
8.8 nM	CNC(=O)OC1CN(C(=O)CC2(c3ccccc3)C3CC4CC2CC(C3)C4O)C1 (single isomer, unassigned) [Example 242]	% inhibition (11beta-HSD1): 65%
75 nM	O=C(NCc1nnn[nH]1)OC1CN(C(=O)CC2(c3ccccc3)C3CC4CC2CC(C3)C4O)C1 (single isomer, unassigned) [Example 259]	
6.1 nM	O=C(CC1(c2ccccc2)C2CC3CC1CC(C2)C3O)N1CC(CO)C1 (single isomer, unassigned) [Example 265]	
16 nM	O=C(CC1(c2ccccc2)C2CC3CC1CC(C2)C3O)N1C[C@H](O)CO1 (single isomer, unassigned) [Example 270]	
260 nM	O=C(CC1(c2ccccc2)C2CC3CC1CC(C2)C3O)N1CCC[C@H](O)C1 (single isomer, unassigned) [Example 279]	
175 nM	O=C(CC1(c2ccccc2)C2CC3CC1CC(C2)C3O)N1CCC[C@@H](O)C1 (single isomer, unassigned) [Example 281]	
636 nM	O=C(CC1(c2ccccc2)C2CC3CC1CC(C2)C3O)N1CC(c2nnc3ccccn23)C1 (centres unmarked) [Example 35]	
182 nM	CC1(CC(=O)N2CC(NC(=O)OCc3ccccc3)C2)C2CC3CC1CC(C2)C3O (centres unmarked) [Example 183]	
127 nM	CNC(=O)NC1CN(C(=O)CC2(c3ccccc3)C3CC4CC2CC(C3)C4O)C1 (centres unmarked) [Example 212]	
520 nM	COC(=O)NC1CN(C(=O)CC2(c3ccc(F)cc3)C3CC4CC2CC(C3)O4)C1 (centres unmarked) [Example 235]	
16 nM	CC(C)(O)CNC(=O)OC1CN(C(=O)CC2(c3ccccc3)C3CC4CC2CC(C3)C4O)C1 (centres unmarked) [Example 243]	
3 nM	O=C(CC1(c2ccccc2)C2CC3CC1CC(C2)C3O)N1CCSC1 (centres unmarked) [Example 247]	
1720 nM	CS(=O)(=O)NC(=O)C1CN(C(=O)CC2(c3ccccc3)C3CC4CC2CC(C3)C4O)C1 (centres unmarked) [Example 250]	
2.8 nM	CC(C)c1ccc(C2(CC(=O)N3CC(O)C3)C3CC4CC2CC(C3)C4O)cc1 (centres unmarked) [Example 292]	
